The subject of one assay is hsp70-coding region. The experiment in a line: Southern analysis of psoralen crosslinking in salivary glands. The class given is cell-based, Drosophila melanogaster. Conditions: heat-shocked salivary gland chromosomes treated with α-amanitin prior to the crosslinking step; FIG. 3 lanes 6 and 7. The procedure: (§1) Drosophila melanogaster Oregon R was grown at 18° C. According to the test protocol, some third-instar larvae were subjected to heat shock treatment; i.e., the larvae were collected in a polypropylene tube, and the tube was submerged in a 37° C. water bath for 10 minutes. Salivary glands were obtained through dissection of the larvae in a dissection buffer (10 mM HEPES-KOH (pH 7.6), 5 mM MgCl2, 5 mM KCl, 130 mM NaCl, 1% polyethylene glycol 6000). Also according to the test protocol, some of the salivary gland specimens were exposed to X-ray irradiation for 60 minutes at a dose rate of about 3 Gy/min (TORREX CABINET X-RAY SYSTEM Model TRX2800, Faxitron), whereby nicks were introduced into DNA.
Application of heat shock and dissection of larvae were performed in a manner similar to those employed for staining. […]
After electrophoresis, the gel was incubated with a denaturing solution (0.5M NaOH, 1.5M NaCl) at 65° C. for 100 minutes for reverse crosslinking of DNA with psoralen. […] Hybridization signals were detected by use of X-ray film. […]
The protocol will be described briefly as follows. […] The DNA fragments were blotted onto a nylon membrane. hsp70 located at 87A7 (FIG. 1, CRs and DDS) was analyzed using probes through the Southern method. […]

Assay [1] relates to negative supercoils of DNA on salivary gland chromosomes. As to the kind of experiment: Staining of salivary gland chromosomes with biotinylated psoralen / Alexa 488-labeled streptavidin. The class given is cell-based, Drosophila melanogaster. On the procedure:
as §1
Four or five pairs of salivary glands were treated with a dissection buffer (40 μL) containing 0.01% digitonin and rinsed with a dissection buffer containing no digitonin. Subsequently, the resultant salivary glands were treated with a dissection buffer containing 0.2 ng/ml biotinylated psoralen for 10 minutes. […] Br-UTP was detected with anti-BrdU monoclonal antibody (Roche) and rhodamin-labeled anti-mouse IgG antibody.
Biotinylated psoralen was detected with Alexa 488-labeled streptavidin (Molecular Probe). […] Fluoroimages were analyzed with a Carl Zeiss Axioplan 2 microscope and IP lab software.
In order to visualize negative supercoils of DNA on salivary gland chromosomes throughout the entire genome, we have extended the psoralen crosslinking protocol, using a protocol in which biotinylated psoralen is detected with fluorescence-labeled streptavidin. […] Biotinylated psoralen was detected with Alexa 488-labeled streptavidin. […] Such signals were not detected when the chromosomes had been treated with a psoralen-free buffer, or when the crbsslinking step was not performed after treatment with psoralen. […] When chromosomes had been irradiated with X-ray (180 Gy) before crosslinking with biotinylated psoralen to thereby introduce nicks into the DNA, psoralen signals which may otherwise appear in interbands and puffs were not detected (FIGS. 5A to 5C). […]

Where [2] appears, read: heat shocked larvae, α-amanitin treatment prior to crosslinking, FIGS. 7D to 7F.

With α-Amanitin, in the assay with hsp70-coding region, the “crosslink-related signals (psoralen crosslinking, Southern)” value is recorded as “substantially no crosslink-related signals were detected”. Besides, in assay [1] (setting [2]), the “configuration of heat shock puffs” value is “did not affect” and the “psoralen signals in heat shock puffs” value is “not detected”. In addition, in assay [1] (non-heat shocked, 3 μg/mL α-amanitin before crosslinking with biotinylated psoralen, FIGS. 5D and 5E), the “psoralen signals in interbands and puffs” value is reported as “undetected”.

The record behind these values is patent US20040235007A1, “Method for detecting negatively supercoiled DNA” (National Institute of Genetics, priority 2003, published 2004).
